Among the data in patent US20260042769A1, “TRIARYL AGONISTS OF ALPHA-2 ADRENERGIC RECEPTORS” (ALCEPTOR THERAPEUTICS, INC., priority 2023, published 2026) are EC50 values, retold here.

The structures appear in SMILES notation.

This experiment deals with T1, human ADRA2B receptor (Homo sapiens, UniProt P18089).
T1 construct: expressed in transfected cells
T1 sequence (P18089 1-450): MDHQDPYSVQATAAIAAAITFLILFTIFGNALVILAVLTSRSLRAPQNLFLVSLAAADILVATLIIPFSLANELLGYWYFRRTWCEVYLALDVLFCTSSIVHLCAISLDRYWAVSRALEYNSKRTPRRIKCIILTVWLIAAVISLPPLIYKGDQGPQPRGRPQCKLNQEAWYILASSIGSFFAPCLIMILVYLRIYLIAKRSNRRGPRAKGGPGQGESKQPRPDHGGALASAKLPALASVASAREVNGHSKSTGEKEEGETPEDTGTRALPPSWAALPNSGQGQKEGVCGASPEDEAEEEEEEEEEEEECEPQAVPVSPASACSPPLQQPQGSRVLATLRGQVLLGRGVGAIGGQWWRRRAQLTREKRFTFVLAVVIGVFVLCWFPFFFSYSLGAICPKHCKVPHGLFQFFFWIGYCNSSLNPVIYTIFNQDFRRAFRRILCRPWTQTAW
Description: GTPγS agonist assay, ADRA2B receptor. The conditions noted are these: read-out: GTPase - Human Alpha2B EC50. Type of experiment: biochemical. The gist of the method: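 CHO-K1 membranes stably expressing human ADRA2B (5 μg protein) in 20 mM HEPES, 10 mM MgCl2, 200 mM NaCl with GDP, preincubated 10 min at room temperature with compound. Binding reaction 1 h at 37° C; bound label collected on GF/C filters, washed, read by scintillation counting.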
For `Cc1cccc([C@@H](Cc2ccnc(C(F)(F)F)n2)c2cnc[nH]2)c1C` [Compound 73, 4-[(2R)-2-(2,3-dimethylphenyl)-2-(1H-imidazol-4-yl)ethyl]-2-(trifluoromethyl) pyrimidine], the EC50 (as a rule, the concentration giving half of the maximal effect) was over 500 nM.

In the case of `FC(F)(F)Oc1ccccc1[C@@H](Cc1ccccn1)c1cnc[nH]1` [Compound 30, 2-[(2R)-2-(1H-imidazol-4-yl)-2-[2-(trifluoromethoxy)phenyl]ethyl] pyridine], the EC50 is over 500 nM.

Consider `COc1cccc(C[C@H](c2c[nH]cn2)c2cccc(C)c2F)n1` (single isomer, unassigned) [Compound 5], for which the EC50 was under 10 nM. With `Cc1cccc([C@H](Cc2cccnn2)c2c[nH]cn2)c1Cl` [Compound 213, 3-[(S)-2-(2-chloro-3-tolyl)-2-(4-imidazolyl)ethyl] pyridazine], the EC50 is 10 to 50 nM. Turning to `Cc1cc(CC(c2c[nH]cn2)c2cccc(C)c2C)no1` (stereo not shown) [Compound 114, 3-[2-(4-imidazolyl)-2-(2,3-xylyl)ethyl]-5-methyl-isoxazole], the EC50 was under 10 nM.

For `COc1cccc(C[C@H](c2c[nH]cn2)c2cccc3c2OCC3)n1` [Compound 16, 2-[(2S)-2-(2,3-dihydro-1-benzofuran-7-yl)-2-(1H-imidazol-4-yl)ethyl]-6-methoxypyridine], the 50% effective concentration (EC50) is under 10 nM. For `Cc1cccc([C@H](Cc2ccn(C)n2)c2c[nH]cn2)c1C` [Compound 106, 3-[(S)-2-(4-imidazolyl)-2-(2,3-xylyl)ethyl]-1-methylpyrazole], the EC50 was in the range of 10 to 50 nM.

For the compound `Cc1cccc([C@@H](Cc2cccnn2)c2c[nH]cn2)c1F` [Compound 137, 3-[(R)-2-(2-fluoro-3-tolyl)-2-(4-imidazolyl)ethyl] pyridazine], the half-maximal effective concentration (EC50) is 50 to 500 nM. `COc1cccc(C(Cc2cccc(OC)n2)c2cnc[nH]2)c1` (stereo not shown) [Compound 25, 2-[2-(1H-imidazol-4-yl)-2-(3-methoxyphenyl)ethyl]-6-methoxypyridine]: the half-maximal effective concentration (EC50) lay in the range of 50 to 500 nM. Consider `Cc1nccc(C[C@@H](c2cnc[nH]2)c2cccc(C)c2C)n1` [Compound 71, 4-[(2R)-2-(2,3-dimethylphenyl)-2-(1H-imidazol-4-yl)ethyl]-2-methyl-pyrimidine], for which the EC50 is over 500 nM. Under `COc1cccc(C[C@@H](c2cnc[nH]2)c2cccc3c2COC3)n1` [Compound 12, 2-[(2R)-2-(1,3-dihydro-2-benzofuran-4-yl)-2-(1H-imidazol-4-yl)ethyl]-6-methoxypyridine] stands over 500 nM. Regarding `c1cnnc(C[C@H](c2c[nH]cn2)c2cccc3c2OCC3)c1` [Compound 363, 3-[(S)-2-(2,3-dihydro-1-benzofuran-7-yl)-2-(4-imidazolyl)ethyl]pyridazine], the EC50 is over 500 nM.

With `FC(F)(F)c1ccc(C(Cc2cccnn2)c2c[nH]cn2)c(Cl)c1` (stereo not shown) [Compound 201, 3-{2-[2-chloro-4-(trifluoromethyl)phenyl]-2-(4-imidazolyl)ethyl} pyridazine], the EC50 was over 500 nM. Turning to `COc1nccc(CC(c2ccc(C(F)F)cc2)c2c[nH]cn2)n1` (stereo not shown) [Compound 188, 4-{2-[p-(difluoromethyl)phenyl]-2-(4-imidazolyl)ethyl}-2-methoxypyrimidine], the half-maximal effective concentration (EC50) was over 500 nM. As to `COc1cccc(C[C@H](c2cccc(Cl)c2)c2cnc[nH]2)n1` [Compound 22, 2-[(2R)-2-(3-chlorophenyl)-2-(1H-imidazol-4-yl)ethyl]-6-methoxypyridine], the EC50 was over 500 nM. For the compound `Cc1nc(C[C@@H](c2cnc[nH]2)c2cccc(C)c2C)cs1` [Compound 102, 4-[(R)-2-(4-imidazolyl)-2-(2,3-xylyl)ethyl]-2-methyl-1,3-thiazole], the EC50 was 10 to 50 nM. Under `Cc1cccc([C@@H](Cc2cccnn2)c2c[nH]cn2)c1Cl` [Compound 214, 3-[(R)-2-(2-chloro-3-tolyl)-2-(4-imidazolyl)ethyl] pyridazine] stands over 500 nM.

`COc1cc(CC(c2c[nH]cn2)c2cccc3c2OCC3)nc(OC)n1` (stereo not shown) [Compound 335, 4-(2-(2,3-dihydrobenzofuran-7-yl)-2-(1H-imidazol-4-yl)ethyl)-2,6-dimethoxypyrimidine]: the concentration giving a half-maximal response (EC50) is under 10 nM.

Consider `Fc1c(Cl)cccc1C(Cc1cccnn1)c1c[nH]cn1` (stereo not shown) [Compound 219, 3-[2-(3-chloro-2-fluorophenyl)-2-(4-imidazolyl)ethyl] pyridazine], for which the EC50 is over 500 nM. Consider `Cc1cnc(CC(c2c[nH]cn2)c2cccc3c2OCC3)s1` (stereo not shown) [Compound 279, 2-[2-(2,3-dihydro-1-benzofuran-7-yl)-2-(4-imidazolyl)ethyl]-5-methyl-1,3-thiazole], for which the EC50 is 10 to 50 nM. With `Cc1nc(C)c(C[C@H](c2c[nH]cn2)c2cccc(C)c2C)s1` [Compound 124, 5-[(S)-2-(4-imidazolyl)-2-(2,3-xylyl)ethyl]-2,4-dimethyl-1,3-thiazole], the concentration giving a half-maximal response (EC50) is 10 to 50 nM. With `COc1cccc(C[C@@H](c2cnc[nH]2)c2cccc(Cl)c2C)n1` [Compound 15, 2-[(2R)-2-(3-chloro-2-methylphenyl)-2-(1H-imidazol-4-yl)ethyl]-6-methoxypyridine], the EC50 is under 10 nM. With `FC(F)Oc1cccc([C@H](Cc2ccccn2)c2cnc[nH]2)c1` [Compound 37] the figure was 10 to 50 nM; with `Clc1cccc(C(Cc2cccnn2)c2c[nH]cn2)c1Cl` (stereo not shown) [Compound 170, 3-[2-(2,3-dichlorophenyl)-2-(4-imidazolyl)ethyl] pyridazine], 50 to 500 nM.

In the case of `Cc1cc(C[C@@H](c2cnc[nH]2)c2cccc(C)c2C)n(C)n1` [Compound 69, 5-[(2R)-2-(2,3-dimethylphenyl)-2-(1H-imidazol-4-yl)ethyl]-1,3-dimethyl-1H-pyrazole], the EC50 is under 10 nM. Regarding `Cc1cc(C[C@@H](c2c[nH]cn2)c2cccc(C)c2C)no1` [Compound 135, 3-[(R)-2-(4-imidazolyl)-2-(2,3-xylyl)ethyl]-5-methyl-isoxazole], the EC50 was over 500 nM.

For the compound `Cc1nccc(CC(c2c[nH]cn2)c2cccc3ncoc23)n1` (stereo not shown) [Compound 338, 7-[1-(4-imidazolyl)-2-(2-methyl-4-pyrimidinyl)ethyl]-1,3-benzoxazole], the EC50 was over 500 nM. Under `Cc1cccc(C(Cc2ncccn2)c2cnc[nH]2)c1C` (stereo not shown) [Compound 93, 2-[2-(2,3-dimethylphenyl)-2-(1H-imidazol-4-yl)ethyl] pyrimidine] stands 50 to 500 nM; under `FC(F)(F)c1ccccc1C(Cc1cccnn1)c1c[nH]cn1` (stereo not shown) [Compound 166, 3-{2-(4-imidazolyl)-2-[o-(trifluoromethyl)phenyl]ethyl}pyridazine], over 500 nM; under `Cc1cccc([C@@H](Cc2cccc(C(F)(F)F)n2)c2c[nH]cn2)c1C` [Compound 81, 2-[(2R)-2-(2,3-dimethylphenyl)-2-(1H-imidazol-4-yl)ethyl]-6-(trifluoromethyl) pyridine], over 500 nM. Take `Cc1cnc(C[C@H](c2cnc[nH]2)c2cccc(C)c2C)nc1` [Compound 74, 2-[(2S)-2-(2,3-dimethylphenyl)-2-(1H-imidazol-4-yl)ethyl]-5-methyl-pyrimidine]: the half-maximal effective concentration (EC50) was over 500 nM. On to `Cc1cccc([C@@H](Cc2ccc(=O)[nH]n2)c2cnc[nH]2)c1C` [Compound 77, 6-[(2R)-2-(2,3-dimethylphenyl)-2-(1H-imidazol-4-yl)ethyl]-2,3-dihydropyridazin-3-one], for which the concentration for a half-maximal effect (EC50) is under 10 nM. Under `COc1nccc(CC(c2c[nH]cn2)c2cccc(Cl)c2Cl)n1` (stereo not shown) [Compound 200, 4-[2-(2,3-dichlorophenyl)-2-(4-imidazolyl)ethyl]-2-methoxypyrimidine] stands under 10 nM; under `COc1nccc(CC(c2c[nH]cn2)c2cccc(Cl)c2C#N)n1` (stereo not shown) [Compound 196, 6-chloro-2-[1-(4-imidazolyl)-2-(2-methoxy-4-pyrimidinyl)ethyl] benzonitrile], 50 to 500 nM. Regarding `COc1ncc(CC(c2c[nH]cn2)c2cccc3c2OCC3)c(OC)n1` (stereo not shown) [Compound 312, 5-[2-(2,3-dihydro-1-benzofuran-7-yl)-2-(4-imidazolyl)ethyl]-2,4-dimethoxypyrimidine], the half-maximal effective concentration (EC50) was 10 to 50 nM. With `COc1cccc(C[C@@H](c2c[nH]cn2)c2cccc(C)c2C)n1` [Compound 4, 2-[(2R)-2-(2,3-dimethylphenyl)-2-(1H-imidazol-4-yl)ethyl]-6-methoxypyridine], the EC50 is 50 to 500 nM. In the case of `Cc1cccc([C@H](Cc2cscn2)c2c[nH]cn2)c1C` [Compound 120, 4-[(S)-2-(4-imidazolyl)-2-(2,3-xylyl)ethyl]-1,3-thiazole], the EC50 was over 500 nM. In the case of `FC1(F)Oc2cccc(C(Cc3ccccn3)c3c[nH]cn3)c2O1` (stereo not shown) [Compound 115, 2,2-difluoro-4-[1-(4-imidazolyl)-2-(2-pyridyl)ethyl]-2H-1,3-benzodioxole], the EC50 is 50 to 500 nM. Under `COc1cccc(C[C@H](c2c[nH]cn2)c2cccc3c2CCO3)n1` [Compound 18, 2-[(2S)-2-(2,3-dihydro-1-benzofuran-4-yl)-2-(1H-imidazol-4-yl)ethyl]-6-methoxypyridine] stands over 500 nM; under `Cc1cccc(C(Cc2ccc(Cl)cn2)c2cnc[nH]2)c1C` (stereo not shown) [Compound 90, 5-chloro-2-[2-(2,3-dimethylphenyl)-2-(1H-imidazol-4-yl)ethyl] pyridine], under 10 nM.
